Values quoted from earlier work as cited in patent US7119079B2, “Bioadhesive pharmaceutical compositions” (priority 2003, dated 2006).

Experiments:
[1] = system: distal ulcerative colitis; conditions: compared with hydrocortisone and mesalamine enemas
[2] = system: Mycobacterium tuberculosis
[3] = system: distal ulcerative colitis; conditions: enemas, patients with distal ulcerative colitis; fraction of patients

In the case of Nc1ccc(C(=O)O)c(O)c1 [Compound 4-ASA, 4-amino salicylic acid], the “effectiveness of enemas in distal ulcerative colitis” value [1] is listed as “as effective as hydrocortisone enemas and as effective as mesalamine enemas” and the “activity against Mycobacterium tuberculosis” value [2] is listed as “bacteriostatic”.
For Nc1ccc(O)c(C(=O)O)c1 [mesalamine, 5-amino salicylic acid], the patients showing improvement [3] is given as “Three quarters”.
For O=C(O)c1cc(/N=N/c2ccc(S(=O)(=O)Nc3ccccn3)cc2)ccc1O [sulfasalazine, salicyl-azo-sulfapyridine], the patients showing improvement [3] is given as “Three quarters”.
For Nc1ccc(S(=O)(=O)Nc2ccccn2)cc1 [sulfapyridine], the patients showing improvement [3] is given as “about one third”.
